Test results: patent US8962845B2, “Pyrazole compounds” (National Health Research Institutes, priority 2011, dated 2015)

Assays:
osteoarthritic rats = assay: ACLT-induced knee osteoarthritis; format: in vivo, Sprague-Dawley rats; conditions: 8 weeks
Experimental: Four-month-old male Sprague-Dawley rats were anesthetized using intramuscular atropine (1 mg/kg) and intraperitoneal pentobarbital. The left knees of rats underwent medial parapatellar arthrotomy and transection of the anterior cruciate ligament (ACLT) to induce knee osteoarthritis. The osteoarthritic rats were given a CB1 antagonist (i.e., compounds 10, 63, and 119) or vehicle for 8 weeks. Knee joint radiography was evaluated by a mammography system. Gait profiles of joints in osteoarthritic rats were analyzed by a CatWalk system. Joint morphology was histologically evaluated by a Mankin scoring system.

male C57BL/6 mice = assay: Tetrad response test (body temperature, tail-flick after CP55,940); format: in vivo; conditions: CP55,940 1 mg/kg i.p.
Experimental: Body temperature and tail-flick responses were measured by rectal thermometer (Natsume, Japan) and tail-flick analgesia meter RS232 (Columbus, USA), respectively, in male C57BL/6 mice. One hour after oral administration of a test compound dissolved in DMSO/Tween 80/H2O (1/1/8 by volume), 1 mg/kg of CP55,940 in saline containing 0.5% DMSO was injected intraperitoneally. Body temperature was measured at a time point of 30 and 65 min, and tail flick response was measured at a time point of 35 min after the injection.

[1] = system: estrogen deficiency-induced osteoporosis mice; assay: Treatment of estrogen deficiency-induced osteoporosis mice; format: in vivo; conditions: ovariectomized mice, 5 days per week for 2, 4, and 8 weeks; for trabecular bone microstructure: μCT
Experimental: Three-month-old female mice were subjected to bilateral ovariectomy or sham operation. Two weeks postoperatively, a CB1 antagonist (i.e., compounds 10, 63, and 119) or vehicle was administered 5 days per week for 2, 4, and 8 weeks. Bone mineral density and bone mineral contents in femurs, tibiae, and L1-L5 spine were measured by dual energy x-ray absorptiometry. Trabecular bone microstructure (i.e., trabecular bone volume, thickness, number, separation, porosity, and bone volume index) in femurs, tibiae and spine were analyzed by μCT scanning Mechanical strength of the bones was detected by a material test machine.

diabetic rats = assay: Streptozotocin-induced diabetic nephropathy and kidney fibrosis; format: in vivo, Wistar rats; conditions: 4 weeks; for kidney fibrosis: periodic acid-Schiff staining
Experimental: Three-month-old male Wistar rats were given intraperitoneal streptozotocin (50 mg/kg) to induce diabetes. Two weeks later, diabetic rats that had fasting blood glucose levels of […] were selected for studies. Caged in a metabolic cage system, the diabetic rats were administered a CB1 antagonist (i.e., compounds 10, 63, and 119) for 4 weeks while their urine was collected. To evaluate renal function, protein and creatinine levels in urine were measured by ELISA. To evaluate renal fibrosis, kidneys were dissected, fixed, paraffin wax embedded, and sectioned for histologic assessment after periodic acid-Schiff staining.

diet-induced obese mice = assay: Treatment of diet-induced obese mice; format: in vivo, C57BL/6 mice; conditions: 21 days
Experimental: Six-week-old C57BL/6 mice were given high-fat diet (Research Diet D 12451; 45% fat, 20% protein, and 35% carbohydrate) for more than 12 weeks before treated with a test compound. Mice weight matched were assigned to different groups and orally gavaged once daily with a vehicle (10% DMSO/10% Tween 80/80% H2O) or a test compound at a defined dosage (e.g., 10 and 20 mg/kg) for at least two weeks. The sum of food taken for each treatment and the body weight were measured daily.

Row | Compound | Mankin score (osteoarthritic rats) | reversal of CB1 agonist-induced analgesic response (male C57BL/6 mice; oral dose up to 100 mg/kg) | reversal of CB1 agonist-induced hypothermia (male C57BL/6 mice; oral dose up to 100 mg/kg) | bone mineral density [1] | trabecular bone microstructure [1] | urine albumin level (diabetic rats) | kidney fibrosis (diabetic rats) | relative weight-loss rate (diet-induced obese mice; 10 mg/kg group, oral once daily) [%] | relative weight-loss rate (diet-induced obese mice; 20 mg/kg group, oral once daily) [%] | reversal of CB1 agonist-induced analgesic response (male C57BL/6 mice; dose as low as 2 mg/kg) | reversal of CB1 agonist-induced hypothermia (male C57BL/6 mice; dose as low as 2 mg/kg) | relative weight-loss rate (diet-induced obese mice; rimonabant comparison, dose not given) [%]
1 | O=C(NN1CCCCC1)c1nn(-c2ccc(Cl)cc2Cl)c(-c2ccc(C#Cc3ccc(C(F)(F)F)cc3)s2)c1CNS(=O)(=O)N1CCCC1 [Compound 10, 1-(2,4-Dichlorophenyl)-N-(piperidin-1-yl)-4-((pyrrolidine-1-sulfonamido)methyl)-5-(5-((4-(trifluoromethyl)phenyl)ethynyl)thiophen-2-yl)-1H-pyrazole-3-carboxamide] | reduction | did not reverse or slightly reversed | did not reverse or slightly reversed | increase | improvement | decrease | reduction | 26.4 | 32.8 | – | – | –
2 | CCCC#Cc1ccc(-c2c(CNS(=O)(=O)N3CCCCC3)c(C(=O)NN3CCCCC3)nn2-c2ccc(Cl)cc2Cl)s1 [Compound 63, 1-(2,4-Dichlorophenyl)-5-(5-(pent-1-ynyl)thiophen-2-yl)-N-(piperidin-1-yl)-4-((piperidine-1-sulfonamido)methyl)-1H-pyrazole-3-carboxamide] | reduction | did not reverse or slightly reversed | did not reverse or slightly reversed | increase | improvement | decrease | reduction | – | – | – | – | –
3 | O=C(NN1CCCCC1)c1nn(-c2ccc(Cl)cc2Cl)c(-c2ccc(Cl)cc2)c1CNS(=O)(=O)N1CCCC1 [Compound 119, 5-(4-Chlorophenyl)-1-(2,4-dichlorophenyl)-N-(piperidin-1-yl)-4-((pyrrolidine-1-sulfonamido)methyl)-1H-pyrazole-3-carboxamide] | reduction | did not reverse or slightly reversed | did not reverse or slightly reversed | increase | improvement | decrease | reduction | – | – | – | – | –
4 | Cc1c(C(=O)NN2CCCCC2)nn(-c2ccc(Cl)cc2Cl)c1-c1ccc(Cl)cc1 [rimonabant, reference compound] | – | – | – | – | – | – | – | – | – | significantly reversed | significantly reversed | 29.1
